Assay results: patent publication US6177438A, “Morphinan derivatives and pharmaceutical use thereof” (priority 1993, dated 2001)

Key:
[1] = system: extracted guinea pig ileum preparation; assay: Opioid activity test using an extracted guinea pig ileum preparation (suppression of electrically induced contractions); parameters: species or system male Hartley guinea pig; settings: Cavia porcellus, electrical stimulus 0.1 Hz, 37° C.
Description: (§1) A male Hartley guinea pig was used in this test. After sacrificing the guinea pig and extracting the ileum, the lumen was washed with nutrient solution and only the longitudinal muscle was isolated. This longitudinal muscle was suspended in a Magnus tube filled with Krebes-Henseleit solution (NaCl 118 mM; KCl 4.7 mM; CaCl2 2.5 mM; KH2 PO4 1.2 mM; NaHCO3 25 mM; MgSO4 1.2 mM; Glucose 10 mM) warmed to 37° C. and ventilated with 5% carbon dioxide and 95% oxygen. Electrical stimulus was performed at 0.1 Hz for 5.0 ms by means of ring-shaped platinum electrodes located above and below. Tissue contractions were recorded on a polygraph using an isometric transducer.
(§2) After adequately washing with nutrient solution and the contraction reaction stabilized, the μ agonist, naloxone, or the κ agonist, norBNI, was added after which the test compound was again cumulatively added after roughly 20 minutes. The Ke value was calculated using the following calculation formula from the difference in the efficacies of both agonists.

κ receptor [2] = target: T1, κ receptor (Mus musculus, UniProt P33534); assay: Opioid activity test using an extracted mouse vas deferens preparation, Ke with norBNI; parameters: species or system male ddy mouse; settings: for receptor selectivity of agonist (κ): in words; for Ke, norBNI: κ, norBNI added
T1 construct: from tissue; host or cells: mouse (male ddy) vas deferens

μ receptor [3] = assay: Opioid activity test using an extracted guinea pig ileum preparation, Ke with naloxone; parameters: species or system male Hartley guinea pig; settings: naloxone added
Description: as §1, §2
(§3) Ke=[Conc. of added agonist]/(IC50 ratio-1)
(§4) IC50 ratio=IC50 in the presence of agonist/IC50 in the absence of agonist

κ receptor [4] = target: T2, κ receptor (Cavia porcellus, UniProt P41144); assay: Opioid activity test using an extracted guinea pig ileum preparation, Ke with norBNI; parameters: species or system male Hartley guinea pig; settings: norBNI added
T2 construct: After sacrificing the guinea pig and extracting the ileum; from tissue; host or cells: guinea pig (male Hartley) ileum, longitudinal muscle
Description: as §1, §2, §3, §4

[5] = Diuretic action (urine output for 5 hours after physiological saline loading in rats); type: in vivo, male Wistar rats; settings: Rattus norvegicus, sc, 5 hours after saline 20 ml/kg p.o.; for ED (200% urine output): dose giving urine output of 200 (non-dosed group = 100); for ED (500% urine output): dose giving urine output of 500 (non-dosed group = 100)
Procedure, shortened: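 Male Wistar rats (7-8 weeks), water withheld 1 h, bladder emptied, drug given subcutaneously; 30 min later 20 ml/kg saline orally. Urine collected 5 h after saline loading in metabolic cages; ED200 and ED500 are doses giving urine output of 200 and 500 relative to non-dosed group at 100.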

[6] = system: acetic acid-induced writhing in ddy mice; assay: animal or person; type: in vivo, 5 week old ddy mice; settings: Mus musculus, sc, s.c. 15 minutes before acetic acid, read-out: ED50
Description: 5 week old ddy mice were used in this test. After intraperitoneal administration of 0.1 ml of 0.6% aqueous acetic acid per 10 g of body weight, the number of writhing reactions that occurred in 10 minutes starting 10 minutes after administration was evaluated for the indicator. The test drug was administered subcutaneously into the backs of the animals 15 minutes before administration of acetic acid.

[7] = system: cultured nerve cells (cerebral cortex); settings: 10 mM glutamic acid, 24 hours
μ receptor [8] = target: T3, μ receptor (Mus musculus, UniProt P42866); assay: Opioid activity test using an extracted mouse vas deferens preparation, Ke with naloxone; parameters: species or system male ddy mouse; settings: naloxone added
T3 construct: naloxone as mu antagonist (printed 'agonist')

[9] = system: extracted mouse vas deferens preparation; assay: Opioid activity test using an extracted mouse vas deferens preparation (suppression of electrically induced contractions); parameters: species or system male ddy mouse; settings: electrical stimulus 0.1 Hz, 37° C.
Procedure, shortened: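 Male ddY mouse vas deferens in Krebs-Henseleit at 37° C, 5% CO2/95% O2, field-stimulated at 0.1 Hz, 5.0 ms; isometric contractions recorded. After adding naloxone, NTI or norBNI, test compound was added cumulatively after ~20 min; Ke derived from the difference in agonist efficacies.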

δ receptor = target: T4, δ receptor (Mus musculus, UniProt P32300); parameters: species or system male ddy mouse; settings: mouse vas deferens, δ, NTI added
T4 construct: The vas deferens extracted from the animal was suspended in a Magnus tube; from tissue; host or cells: mouse (male ddy) vas deferens

[10] = system: cultured nerve cells (cerebral cortex); assay: cells; settings: Rattus norvegicus, Cerebral cortex neuron, 24 h, read-out: ED50 (protection against glutamic acid toxicity)
[11] = system: nerve cells in the region of the hippocampus CA1; assay: Delayed neuronal death protective action (gerbil transient ischemia model, hippocampus CA1 nerve cell count); type: in vivo, gerbils; settings: s.c.; for No. of Residual Nerve Cells: 1 hour before ischemia, 1 week after ligation
Description: Those compounds that provide protection from and suppress delayed neuronal death described in Example 238 are considered to be promising as preventive and therapeutic agents for ischemic brain disorders, brain nerve cell disorders and dementia, which are problems that the present invention is attempting to solve. The pharmacological activity of the compounds of the present invention was evaluated in the manner below using gerbils for the animal model.
A midline incision was made in gerbils having body weights of 50-70 g under ether anesthesia. Blood flow through the carotid arteries on both sides was interrupted to create an ischemic state by ligating the vessels for 5 minutes. The test compound was administered subcutaneously either 30 minutes or 1 hour prior to ligation ischemia, and the rectal temperature of the animals was controlled to 37±2° C. using a heating pad or heater starting 5 minutes before to 30 minutes after ligation ischemia. 1 week after ligation, 4% neutral buffered formalin was perfused from the heart throughout the body followed by extraction of the brain. After post-fixing the extracted brain in the same solution, the tissue was prepared into sections after embedding in paraffin. The sections were stained with hematoxylin and eosin stain, and the number of nerve cells in the region of the hippocampus CA1 over a width of 1 mm to the left and right was counted. The total number of nerve cells on the right and left sides was then used for evaluation.

[12] = system: guinea pig respiratory tract; assay: Antitussive action using the guinea pig respiratory tract stimulation method; type: in vivo, male Hartley guinea pigs; settings: for No. of Animals in which Coughing was Suppressed/No. of Animals Tested: s.c.
Description: Evaluation of Antitussive Action Using the Guinea Pig Respiratory Tract Stimulation Method
Male Hartley guinea pigs having body weights of 330-380 g were used in this test in groups of 5 animals each. The animals were immobilized in the supine position under mild anesthesia by intraperitoneal administration of 15 mg/kg of sodium pentobarbital. An incision was made in the necks of the animals to expose the respiratory tract. A small hole was opened in the exposed respiratory tract, and stimulating hairs were inserted to a depth of roughly 3 cm and at an angle of 30 degrees to the respiratory tract through the opened hole to provide a stimulus to the inner wall of the respiratory tract. The animals were then examined for the presence of coughing. […] The test drug was administered subcutaneously, and stimuli were provided two times each 15, 30, 60 and 120 minutes after administration.

T1 sequence (P33534 whole entry): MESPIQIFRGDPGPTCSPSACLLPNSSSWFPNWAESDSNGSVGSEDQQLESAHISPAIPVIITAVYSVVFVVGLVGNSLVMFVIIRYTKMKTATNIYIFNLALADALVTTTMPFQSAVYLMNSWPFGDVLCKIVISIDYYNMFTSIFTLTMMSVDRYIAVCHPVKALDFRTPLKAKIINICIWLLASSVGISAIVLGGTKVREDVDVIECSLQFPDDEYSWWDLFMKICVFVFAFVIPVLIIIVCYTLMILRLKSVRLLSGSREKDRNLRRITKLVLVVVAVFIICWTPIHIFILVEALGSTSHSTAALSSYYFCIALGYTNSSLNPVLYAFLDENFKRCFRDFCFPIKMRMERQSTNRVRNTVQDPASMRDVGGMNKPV
T4 sequence (P32300 whole entry): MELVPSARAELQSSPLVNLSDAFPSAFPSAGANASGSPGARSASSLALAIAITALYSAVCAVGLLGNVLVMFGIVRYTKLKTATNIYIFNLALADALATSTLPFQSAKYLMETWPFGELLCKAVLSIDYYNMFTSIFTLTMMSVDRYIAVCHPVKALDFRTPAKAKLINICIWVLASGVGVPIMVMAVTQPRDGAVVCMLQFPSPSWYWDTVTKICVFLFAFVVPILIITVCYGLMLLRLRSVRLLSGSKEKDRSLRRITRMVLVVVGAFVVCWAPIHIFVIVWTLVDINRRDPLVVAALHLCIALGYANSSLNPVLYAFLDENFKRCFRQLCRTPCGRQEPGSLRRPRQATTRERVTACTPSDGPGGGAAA
T3 sequence (P42866 whole entry): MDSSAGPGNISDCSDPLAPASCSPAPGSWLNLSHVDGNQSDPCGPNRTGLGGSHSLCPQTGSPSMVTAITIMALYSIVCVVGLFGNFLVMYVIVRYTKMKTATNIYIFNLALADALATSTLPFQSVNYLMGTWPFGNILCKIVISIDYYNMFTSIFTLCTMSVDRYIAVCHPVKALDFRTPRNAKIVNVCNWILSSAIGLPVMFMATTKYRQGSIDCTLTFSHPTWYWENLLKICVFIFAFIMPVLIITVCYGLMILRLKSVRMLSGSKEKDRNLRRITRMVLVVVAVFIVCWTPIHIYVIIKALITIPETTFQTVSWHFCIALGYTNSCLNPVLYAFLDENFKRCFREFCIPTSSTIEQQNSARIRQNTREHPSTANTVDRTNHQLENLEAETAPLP
T2 sequence (P41144 whole entry): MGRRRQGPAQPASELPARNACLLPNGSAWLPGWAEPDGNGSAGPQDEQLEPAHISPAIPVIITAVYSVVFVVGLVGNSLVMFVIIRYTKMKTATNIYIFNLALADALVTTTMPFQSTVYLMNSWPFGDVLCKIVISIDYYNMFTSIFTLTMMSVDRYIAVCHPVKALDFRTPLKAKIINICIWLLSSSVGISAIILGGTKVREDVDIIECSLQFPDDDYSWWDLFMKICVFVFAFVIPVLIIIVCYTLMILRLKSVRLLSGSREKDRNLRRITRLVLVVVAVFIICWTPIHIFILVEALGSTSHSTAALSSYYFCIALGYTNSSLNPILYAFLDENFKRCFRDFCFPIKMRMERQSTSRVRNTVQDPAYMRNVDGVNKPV

SMILES | receptor selectivity of agonist (κ) (κ receptor [2]) | Ke, norBNI (κ receptor [2]) [nM] | ED (200% urine output) [5] [mg/kg] | ED (500% urine output) [5] [mg/kg] | ED50 [6] [mg/kg] | Protective action against cytotoxicity caused by glutamic acid (in words) [7] | IC50 [9] [nM] | Ke, NTI (δ receptor) [nM] | EC50 [10] [nM] | also measured
CN(C(=O)Cc1ccc(Cl)c(Cl)c1)[C@H]1CC[C@@]2(O)[C@H]3Cc4ccc(O)c5c4[C@@]2(CCN3CC2CC2)[C@H]1O5 [Compound 1, 17-cyclopropylmethyl-4,5α-epoxy-3,14β-dihydroxy-6α-(N-methyl-3,4-dichlorophenylacetamido)morphinan] | selective agonists for κ receptors | 0.548 | 0.0027 | 0.0457 | 0.017 | clearly demonstrated action that protects nerve cells from cytotoxicity caused by glutamic acid | 0.395 | 17.3 | 500 | IC50 [1]: 0.026 nM; Ke, Naloxone (μ receptor [3]): 650 nM; Ke, norBNI (κ receptor [4]): 0.16 nM; Ke, Naloxone (μ receptor [8]): 53 nM
CN(C(=O)/C=C/c1cccc(C(F)(F)F)c1)[C@@H]1CC[C@@]2(O)[C@H]3Cc4ccc(O)c5c4[C@@]2(CCN3CC2CC2)[C@H]1O5 [Compound 60, 17-cyclopropylmethyl-3,14β-dihydroxy-4,5α-epoxy-6β-(N-methyl-3-trifluoromethylcinnamamido)morphinan.cndot.tartrate] | selective agonists for κ receptors | 3.20 | 0.0143 | 1.13 | 0.0046 | clearly demonstrated action that protects nerve cells from cytotoxicity caused by glutamic acid | 0.468 | 291 | 1310 | No. of Residual Nerve Cells ([11]; 0.03 mg/kg): 52.1 ± 14.8; No. of Residual Nerve Cells ([11]; 0.3 mg/kg): 148.3 ± 28.5; No. of Residual Nerve Cells ([11]; 3 mg/kg): 284.5 ± 7.1; Suppression of defluxion of brain nerve cells caused by ischemia / cerebro-neuroprotective activity (in words) ([11]; gerbils): significantly suppress defluxion of brain nerve cells caused by ischemia; ED50 ([12]; Cavia porcellus, sc): 0.0026 mg/kg; No. of Animals in which Coughing was Suppressed/No. of Animals Tested ([12]; 1 μg/kg): 1/5; No. of Animals in which Coughing was Suppressed/No. of Animals Tested ([12]; 3 μg/kg): 3/5; No. of Animals in which Coughing was Suppressed/No. of Animals Tested ([12]; 30 μg/kg): 5/5
